According to paper PMC6272905, “In Vitro and In Vivo Characterization of Selected Fluorine-18 Labeled Radioligands for PET Imaging of the Dopamine D3 Receptor” (Molecules, 2016):
Several values for one entry are separate records, joined by “and”; a condition that tells them apart may be missing. Identical values can stand only once.

Assays:
[1] = biological target: T1, D3 receptor in rat brain (Rattus norvegicus, UniProt P19020); assay: Saturation binding assay on rat brain sections; settings: for Bmax: rat brain sections, n = 4
T1 construct: from tissue; host or cells: brain cryosections (12 µm) of male Wistar rats
T1 sequence (P19020 whole entry): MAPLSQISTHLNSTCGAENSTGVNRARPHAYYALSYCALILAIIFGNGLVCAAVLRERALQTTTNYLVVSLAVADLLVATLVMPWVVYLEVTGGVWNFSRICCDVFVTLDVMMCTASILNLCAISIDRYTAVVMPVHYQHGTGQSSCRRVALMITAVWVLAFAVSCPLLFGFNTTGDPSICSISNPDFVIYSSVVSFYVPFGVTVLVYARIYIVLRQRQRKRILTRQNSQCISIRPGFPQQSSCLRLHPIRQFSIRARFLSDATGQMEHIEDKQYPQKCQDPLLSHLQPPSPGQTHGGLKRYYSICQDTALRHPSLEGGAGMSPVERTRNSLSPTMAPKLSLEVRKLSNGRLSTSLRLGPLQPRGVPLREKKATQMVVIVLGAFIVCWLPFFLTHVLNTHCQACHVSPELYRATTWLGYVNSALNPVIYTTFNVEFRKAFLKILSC

[2] = biological target: T2, P-gp (Homo sapiens, UniProt P08183); assay: Bi-directional transport assay in Caco-2 cells; assay type: cell-based
T2 construct: endogenous in cells; host or cells: Caco-2
T2 sequence (P08183 whole entry): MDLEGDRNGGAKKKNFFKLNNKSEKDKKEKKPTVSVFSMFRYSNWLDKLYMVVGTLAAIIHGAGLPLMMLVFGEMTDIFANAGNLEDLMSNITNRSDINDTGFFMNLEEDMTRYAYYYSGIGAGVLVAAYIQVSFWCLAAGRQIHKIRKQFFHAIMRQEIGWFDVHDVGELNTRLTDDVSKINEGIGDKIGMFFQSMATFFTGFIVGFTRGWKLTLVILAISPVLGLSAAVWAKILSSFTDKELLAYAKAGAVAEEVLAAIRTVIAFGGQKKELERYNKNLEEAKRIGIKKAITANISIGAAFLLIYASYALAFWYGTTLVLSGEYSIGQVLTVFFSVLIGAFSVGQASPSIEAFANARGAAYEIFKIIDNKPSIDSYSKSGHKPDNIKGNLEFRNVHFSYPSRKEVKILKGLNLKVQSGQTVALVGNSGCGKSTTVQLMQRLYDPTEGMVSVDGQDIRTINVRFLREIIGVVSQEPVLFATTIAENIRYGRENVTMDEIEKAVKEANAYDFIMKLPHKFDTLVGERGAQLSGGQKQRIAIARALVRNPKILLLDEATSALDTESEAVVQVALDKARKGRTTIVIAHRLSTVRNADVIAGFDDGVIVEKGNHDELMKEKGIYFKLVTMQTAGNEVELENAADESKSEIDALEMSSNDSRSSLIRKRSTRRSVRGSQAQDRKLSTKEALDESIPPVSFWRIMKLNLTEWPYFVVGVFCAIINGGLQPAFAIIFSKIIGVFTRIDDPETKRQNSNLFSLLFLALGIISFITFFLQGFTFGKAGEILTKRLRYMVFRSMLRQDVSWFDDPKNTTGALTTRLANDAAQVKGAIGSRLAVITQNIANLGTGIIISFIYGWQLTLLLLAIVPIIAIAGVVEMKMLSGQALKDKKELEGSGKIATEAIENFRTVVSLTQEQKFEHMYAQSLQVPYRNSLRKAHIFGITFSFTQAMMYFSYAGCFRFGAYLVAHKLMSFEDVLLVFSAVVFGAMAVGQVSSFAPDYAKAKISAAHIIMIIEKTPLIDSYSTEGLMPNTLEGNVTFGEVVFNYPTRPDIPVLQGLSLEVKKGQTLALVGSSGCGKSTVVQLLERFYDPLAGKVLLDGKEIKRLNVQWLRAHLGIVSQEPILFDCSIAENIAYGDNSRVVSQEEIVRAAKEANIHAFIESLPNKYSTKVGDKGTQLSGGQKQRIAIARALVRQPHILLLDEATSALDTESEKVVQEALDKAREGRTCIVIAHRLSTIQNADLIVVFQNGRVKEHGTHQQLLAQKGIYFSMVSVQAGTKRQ
Experimental: The procedure of initially adding equal concentrations to both compartments was adapted from the literature. Caco-2 cells were seeded near confluency in thin-cert inserts (translucent, Ø 0.4 µm, 24 well PET membrane, Greiner) and placed in multiwell plates (CELLSTAR 24 Multiwell plates, Greiner). The culture medium basolateral (multiwell) and apical (insert) was renewed every 2–3 days. Approximately 12 days after seeding the Caco-2 cells reached their highest trans-epithelial resistance, which was monitored every four days and on day of the experiment. An immunocytochemistry was also performed with an additional insert (translucent) to confirm stable formation of tight-junctions and cell monolayer. Culture medium was then removed and the cells were washed with PBS. Culture medium supplemented with cyclosporin (10 µM) was added to both compartments and the cells were incubated at 37 °C for 30 min. Afterwards 1 MBq [^18F]2b was added to each compartment. An aliquot was taken from each compartment after 0, 30, 60 and 90 min and analyzed in the gamma-counter. To identify cyclosporine-A induced accumulation the experiment was also performed using culture medium lacking cyclosporine-A. As positive control the experiment was performed with ^99mTc-MIBI (100 kBq/ compartment).

[3] = tested on: dopamine D3 receptor; assay: Dynamic small-animal PET recordings; assay type: in vivo; settings: rat
Experimental: Small-animal PET imaging studies were conducted with male Sprague Dawleys rats (250–300 g) on a Inveon microPET scanner (Siemens Healthcare, Erlangen, Germany) under isoflurane (3%) anesthesia. After intravenous injection of [^18F]2b (10–15 MBq), dynamic emission recordings consisting of 13 frames of duration increasing from 30 s to 10 min were acquired to a total of 60 min. For displacement studies BP897 (1 mg/kg) was administered 30 min prior to radioligand injection. Dynamic emission images were corrected for attenuation and decay, and reconstructed by the iterative maximum a posteriori estimation, using software installed in the Inveon PET for dead time and random correction. The dynamic PET scan was then evaluated using the software Amide. The regions of interest were evaluated voxel based and the mean activity in %ID/g of each frame calculated.

[4] = biological target: D3 receptor; settings: cited from earlier work
[5] = design: method as in PMID 24339325, PMID 26707848; settings: over 120 min, previously reported; cited from earlier work
[6] = Binding to proteins in human plasma in vitro; assay type: in vitro ADME; settings: human vs rat plasma
Experimental: The free fraction in vitro was determined by adding the respective radioligand (100 kBq) to plasma or CSF (200 µL) and mixed vigorously. Aliquots of 20–50 µL were transferred to size exclusion chromatography columns (MicroSpin G-50; GE Healthcare GmbH, Solingen, Germany, centrifuged for two min at 2000 rpm, and the radioactivity in the filtrate and in the resin were measured in the gamma-counter. Three independent experiments were performed in triplicates.

[7] = biological target: T2, P-gp; assay: P-gp inhibition assay (cellular uptake) in EA.hy926 cells; assay type: cell-based
Experimental: (§1) EA.hy926 cells were seeded in culture medium at confluency the day prior to experiment or in case of the Caco-2 cells two days prior to experiment in 24-multiwell plates (Greiner Bio-One International GmbH, Kremsmünster, Austria). On the day of the experiment the culture medium was removed and the cells were washed once with PBS (500 µL). Culture medium supplemented with cyclosporine-A (5 µM for EA.hy926 and 10 µM for Caco-2) was added and the cells were incubated at 37 °C for 30 min. Afterwards 1 MBq of [^18F]2b was added to each well and incubated for further 30, 60 and 90 min. After incubation cells were washed with ice cold PBS (500 µL) and lysated with 0.1 M NaOH. The medium and lysates were analysed in the gamma-counter. To identify cyclosporine-A induced accumulation the experiment was also performed using culture medium lacking cyclosporine-A. As positive control the experiment was performed with ^99mTc-MIBI (100 kBq/well), a known P-gp substrate. To determine the lowermost concentration with which a maximum effect was obtained, cyclosporine-A was applied in a range of 0–50 µM and observed in a time frame of 30–120 min for both cell lines.

[8] = biological target: T2, P-gp; assay: P-gp inhibition assay (cellular uptake) in Caco-2 cells; assay type: cell-based
Experimental: as §1

[9] = tested on: dopamine D3 receptor; assay: Ex vivo autoradiography of rat brain sections; assay type: in vivo
Experimental: Male Sprague Dawley rats (250–300 g) were injected with 20 MBq of [^18F]2b intra-venous under isoflurane (4%) anesthesia. For blocking studies BP897 (1 mg/kg) was administerd 30 min prior to radioligand injection. Rats were sacrificed by decapitation 30 min post radioligand injection and brains were removed and frozen in cooled hexane at −70 °C. Coronal and horizontal brain sections (12 µm) were cut on a cryostat microtome (HM550, Microm) and thaw-mounted on covered glass slides (Histobond®). The glass slides were placed on a phosphor screen (Fujitsu) over night. The screens were analyzed with a DUERR Medical HD-CR 35 Bio (Raytest) and evaluated using the software AIDA image analyzer (Raytest). Afterwards the sections were HE stained and ascribed to figures in the rat brain atlas. Binding in the regions of interest were evaluated as ratio of the activity in the region of interest through background activity. Binding in the cerebral matter of the respective sections was defined as background activity.

[10] = Caco-2, absence of cyclosporin-A, up to 90 min
[11] = lateral ventricle, coronal section (Interaural 4.70, Bregma −4.30)
[12] = third ventricle, horizontal section (Interaural 5.90, Bregma −4.10)

- Kd ([1]; all three regions): ~0.1 nM
- Kd ([1]; caudate putamen): 0.08 ± 0.06 nM
- Bmax ([1]; caudate putamen (striatum)): 16.58 pmol/g and 16.58 ± 1.63 pmol/g
- Kd ([1]; islands of calleja): 0.1 ± 0.01 nM
- Bmax ([1]; islands of calleja): 20.38 pmol/g and 20.38 ± 2.67 pmol/g
- Kd ([1]; nucleus accumbens): 0.11 ± 0.07 nM
- Bmax ([1]; nucleus accumbens): 19.54 pmol/g and 19.54 ± 1.85 pmol/g
- concentration in the apical compartment, % of the initial concentration [2, 10]: 90%
- concentration in the basolateral compartment, % of the initial concentration [2, 10]: 100%
- concentration in the basolateral compartment ([2]; Caco-2, presence of cyclosporin-A): stayed nearly constant
- concentration in the apical compartment, % of the initial concentration ([2]; Caco-2, presence of cyclosporin-A (^99mTc-MIBI after 60 and 90 min; [^18F]2b after 30 min)): 80%
- P-gp substrate ([2]; conclusion from inhibition and transport assays): no P-gp substrate
- uptake in the third and lateral ventricle [3]: approximately 0.25 %ID/g
- uptake in the pituitary gland ([3]; 30 min p.i.): 0.8 %ID/g
- uptake in the pituitary gland ([3]; after approximately 5 min): 0.94 %ID/g
- maximum uptake in the cerebral matter ([3]; at 65 s post intravenous injection): 0.14 %ID/g
- uptake in the pituitary gland ([3]; end of the recording): 0.76 %ID/g
- uptake in the fourth ventricle ([3]; initial uptake, constant over the 60 min of recording): 0.4 %ID/g
- uptake in the cerebral matter after wash-out ([3]; over the 60 min of recording): 0.07 %ID/g
- binding to human plasma higher than in rat plasma [6]: 20%–30%
- percentage inside the cells [7]: 5%
- influence of cyclosporin-A on cellular uptake ([7]; with vs without cyclosporin-A): did not increase the uptake
- percentage inside the cells [8]: 10%
- influence of cyclosporin-A on cellular uptake ([8]; with vs without cyclosporin-A): did not increase the uptake
- ratio ROI/background ([9]; lateral and third ventricle, section (Interaural 5.70, Bregma −3.30)): 22
- ratio ROI/background ([9]; lateral and third ventricle, sections (Interaural 10.60, Bregma 1.60) and (Interaural 7.70, Bregma −1.30), 30 min p.i.): ~15
- ratio ROI/background [9, 11]: ~30
- ratio ROI/background [9, 12]: 32
Structure (SMILES): COc1ccccc1N1CCN(CCCCNC(=O)/N=N/c2ccc([18F])cc2)CC1 [[^18F]2b]
- blocking of fourth ventricle uptake with BP897 ([3]; BP897 1 mg/kg): 50%
- decrease of initial and mean pituitary gland uptake by blocking with BP897 ([3]; BP897 1 mg/kg): 35%
- Ki [4]: 3.5 nM
- decomposition in human serum [5]: no decomposition was observed
- displacement by BP897 ([9]; lateral and third ventricle, sections (Interaural 10.60, Bregma 1.60) and (Interaural 7.70, Bregma −1.30)): no displacement
- displacement with BP897 [9, 11]: 60%
- displacement by BP897 ([9]; section (Interaural 5.70, Bregma −3.30)): 40%–50%
- displacement through BP897 [9, 12]: 50%
